Our source for the DC50 and Dmax values is patent publication US12448389B2, “BRM targeting compounds and associated methods of use” (Prelude Therapeutics Incorporated, priority 2020, dated 2025).

Structures are written as SMILES. Some results are limits rather than exact numbers.

One experiment has as its target T1, SMARCA2-HiBiT (Homo sapiens, UniProt P51531).
T1 construct: SMARCA2-HiBiT knock-in Hela monoclonal cell (CS302366); host or cells: HeLa monoclonal knock-in line (CRISPR HiBiT knock-in at the endogenous locus, heterozygous)
In words: SMARCA2 HiBiT degradation assay in HeLa cells. It counts as cell-based. The following applies: 18 hours incubation; for DC50: read-out: HeLa_HiBit-SM2 DC50; for Dmax: HeLa, read-out: HeLa-HiBit-SM2 Dmax (%). The method in brief: (§1)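 HeLa monoclonal lines with heterozygous HiBiT knock-in were seeded at 2500 cells/well in EMEM with 10% FBS and treated with compound for 18 h at 37 °C. Remaining tagged protein was measured by Nano-Glo HiBiT lytic luminescence after 30–60 min at RT, and values came from curve fitting.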

The next experiment concerns the target T2, SMARCA4-HiBiT (Homo sapiens, UniProt P51532).
T2 construct: SMARCA4-HiBiT knock-in Hela monoclonal cell (CS3023226); host or cells: HeLa monoclonal knock-in line (CRISPR HiBiT knock-in at the endogenous locus, heterozygous)
As to the kind of experiment: SMARCA4 HiBiT degradation assay in HeLa cells. It counts as cell-based. The following applies: 18 hours incubation; for DC50: read-out: HeLa-HiBit-SM4 DC50; for Dmax: HeLa, read-out: HeLa-HiBit-SM4 Dmax (%). The method in brief:
as §1
In general terms: With HiBiT, luminescence reflects the tagged protein that the partner subunit can reach.

T2 sequence (P51532 whole entry): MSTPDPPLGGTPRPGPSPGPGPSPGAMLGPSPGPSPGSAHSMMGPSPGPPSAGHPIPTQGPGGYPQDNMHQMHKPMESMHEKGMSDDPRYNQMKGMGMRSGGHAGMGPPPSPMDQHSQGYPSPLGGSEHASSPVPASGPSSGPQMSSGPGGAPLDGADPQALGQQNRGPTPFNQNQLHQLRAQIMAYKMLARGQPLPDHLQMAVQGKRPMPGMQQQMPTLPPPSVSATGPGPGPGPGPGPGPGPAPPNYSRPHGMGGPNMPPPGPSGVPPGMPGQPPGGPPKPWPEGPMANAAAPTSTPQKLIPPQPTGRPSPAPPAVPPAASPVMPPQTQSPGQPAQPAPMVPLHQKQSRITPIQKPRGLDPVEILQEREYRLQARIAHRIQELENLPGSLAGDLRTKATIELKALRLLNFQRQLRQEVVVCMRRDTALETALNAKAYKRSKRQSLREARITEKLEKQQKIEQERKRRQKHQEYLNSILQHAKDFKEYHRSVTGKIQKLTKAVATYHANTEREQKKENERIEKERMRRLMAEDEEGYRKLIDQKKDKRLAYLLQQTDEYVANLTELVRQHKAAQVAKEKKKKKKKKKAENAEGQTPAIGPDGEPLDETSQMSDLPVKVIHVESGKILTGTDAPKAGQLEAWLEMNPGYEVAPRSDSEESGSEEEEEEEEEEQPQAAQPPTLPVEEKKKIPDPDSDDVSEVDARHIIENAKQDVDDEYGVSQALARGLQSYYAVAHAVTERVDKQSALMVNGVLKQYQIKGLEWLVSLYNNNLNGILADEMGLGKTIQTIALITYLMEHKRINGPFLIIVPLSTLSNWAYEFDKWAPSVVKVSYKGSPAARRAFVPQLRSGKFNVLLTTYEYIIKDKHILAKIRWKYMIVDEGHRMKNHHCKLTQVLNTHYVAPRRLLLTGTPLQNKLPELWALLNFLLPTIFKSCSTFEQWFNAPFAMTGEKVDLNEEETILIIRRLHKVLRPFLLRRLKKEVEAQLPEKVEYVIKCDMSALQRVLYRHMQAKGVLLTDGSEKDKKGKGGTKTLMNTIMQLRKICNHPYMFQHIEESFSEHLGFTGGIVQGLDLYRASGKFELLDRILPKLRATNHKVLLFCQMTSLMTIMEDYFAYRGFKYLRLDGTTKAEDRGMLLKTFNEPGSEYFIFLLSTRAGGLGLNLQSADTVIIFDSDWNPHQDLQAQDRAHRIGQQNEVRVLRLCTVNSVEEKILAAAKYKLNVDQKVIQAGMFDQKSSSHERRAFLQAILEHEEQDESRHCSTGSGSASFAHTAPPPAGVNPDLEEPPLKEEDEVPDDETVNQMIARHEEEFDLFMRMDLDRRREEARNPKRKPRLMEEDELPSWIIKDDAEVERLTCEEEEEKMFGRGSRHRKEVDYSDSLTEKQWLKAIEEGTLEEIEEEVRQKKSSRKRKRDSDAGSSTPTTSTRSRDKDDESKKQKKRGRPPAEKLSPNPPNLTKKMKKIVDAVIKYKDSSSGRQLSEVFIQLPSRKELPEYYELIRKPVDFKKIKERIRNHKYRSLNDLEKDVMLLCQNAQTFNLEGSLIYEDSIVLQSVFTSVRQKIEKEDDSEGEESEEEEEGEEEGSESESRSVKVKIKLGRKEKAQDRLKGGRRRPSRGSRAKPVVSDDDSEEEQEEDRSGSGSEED
T1 sequence (P51531 whole entry): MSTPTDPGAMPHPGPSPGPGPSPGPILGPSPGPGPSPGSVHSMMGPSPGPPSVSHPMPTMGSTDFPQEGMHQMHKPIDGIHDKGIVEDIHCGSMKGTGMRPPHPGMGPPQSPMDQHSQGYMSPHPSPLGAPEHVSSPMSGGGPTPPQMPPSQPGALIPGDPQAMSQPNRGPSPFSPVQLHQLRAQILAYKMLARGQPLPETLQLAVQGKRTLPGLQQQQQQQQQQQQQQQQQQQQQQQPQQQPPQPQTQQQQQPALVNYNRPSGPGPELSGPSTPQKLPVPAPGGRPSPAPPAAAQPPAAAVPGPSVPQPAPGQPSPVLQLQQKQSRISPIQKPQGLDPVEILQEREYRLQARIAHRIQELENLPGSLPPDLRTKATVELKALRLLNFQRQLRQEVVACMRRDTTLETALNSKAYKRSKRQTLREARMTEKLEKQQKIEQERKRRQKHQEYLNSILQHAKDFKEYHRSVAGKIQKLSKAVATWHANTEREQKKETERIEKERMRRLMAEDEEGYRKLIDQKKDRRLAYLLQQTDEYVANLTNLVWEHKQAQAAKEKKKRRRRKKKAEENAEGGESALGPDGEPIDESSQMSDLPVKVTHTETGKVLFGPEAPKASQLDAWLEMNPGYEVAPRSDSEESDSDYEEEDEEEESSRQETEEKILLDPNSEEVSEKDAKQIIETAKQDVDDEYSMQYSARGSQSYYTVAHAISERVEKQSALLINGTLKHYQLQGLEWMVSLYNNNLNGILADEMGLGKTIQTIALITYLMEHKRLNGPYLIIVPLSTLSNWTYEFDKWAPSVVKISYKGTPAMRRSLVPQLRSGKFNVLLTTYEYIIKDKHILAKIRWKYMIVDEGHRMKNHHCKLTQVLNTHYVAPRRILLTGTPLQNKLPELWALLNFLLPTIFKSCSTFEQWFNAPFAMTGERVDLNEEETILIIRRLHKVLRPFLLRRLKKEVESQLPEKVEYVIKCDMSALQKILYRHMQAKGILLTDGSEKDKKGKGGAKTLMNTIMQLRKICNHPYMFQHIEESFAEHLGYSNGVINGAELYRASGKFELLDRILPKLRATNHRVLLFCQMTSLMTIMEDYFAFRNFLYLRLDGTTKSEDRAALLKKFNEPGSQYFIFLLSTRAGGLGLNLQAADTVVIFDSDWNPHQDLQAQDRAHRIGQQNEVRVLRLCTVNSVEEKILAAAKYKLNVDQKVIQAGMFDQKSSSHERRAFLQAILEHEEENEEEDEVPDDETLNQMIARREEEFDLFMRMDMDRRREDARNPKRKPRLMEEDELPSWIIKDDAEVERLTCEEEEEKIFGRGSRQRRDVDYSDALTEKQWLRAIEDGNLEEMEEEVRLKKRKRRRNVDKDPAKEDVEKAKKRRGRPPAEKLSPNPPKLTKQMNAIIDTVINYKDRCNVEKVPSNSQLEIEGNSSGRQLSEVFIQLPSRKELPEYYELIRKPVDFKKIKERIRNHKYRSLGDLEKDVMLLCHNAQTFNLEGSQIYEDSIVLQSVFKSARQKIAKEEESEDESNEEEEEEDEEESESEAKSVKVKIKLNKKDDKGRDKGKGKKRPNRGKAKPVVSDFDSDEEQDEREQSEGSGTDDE

In general, DC50 refers to the concentration giving 50% degradation. As usually defined, the Dmax is the greatest extent of degradation seen. Consider `CN(C(=O)N1CCN2c3cc(-c4ccccc4O)nnc3NC[C@H]2C1)C1CCN(CC2CCN(c3ccc4c(c3)C(=O)N(C3CCC(=O)NC3=O)C4=O)CC2)CC1` (stereo partly drawn) [Example 138, (6aS)-N-(1-((1-(2-(2,6-dioxopiperidin-3-yl)-1,3-dioxoisoindolin-5-yl)piperidin-4-yl)methyl)piperidin-4-yl)-2-(2-hydroxyphenyl)-N-methyl-5,6,6a,7,9,10-hexahydro-8H-pyrazino[1′,2′:4,5]pyrazino[2,3-c]pyridazine-8-carboxamide], for which the DC50 on SMARCA2-HiBiT and on SMARCA4-HiBiT was less than 10 nM in each case. In addition, the Dmax at SMARCA2-HiBiT and at SMARCA4-HiBiT was more than 85% each time.

On to `CN(C(=O)N1CCN2c3cc(-c4ccccc4O)nnc3NC[C@H]2C1)C1CCN(CC2CCN(c3ccc4c(c3)CN(C3CCC(=O)NC3=O)C4=O)CC2)CC1` (stereo partly drawn) [Example 139, (6aS)-N-(1-((1-(2-(2,6-dioxopiperidin-3-yl)-1-oxoisoindolin-5-yl)piperidin-4-yl)methyl)piperidin-4-yl)-2-(2-hydroxyphenyl)-N-methyl-5,6,6a,7,9,10-hexahydro-8H-pyrazino[1′,2′:4,5]pyrazino[2,3-c]pyridazine-8-carboxamide], for which, at SMARCA2-HiBiT, the DC50 was less than 10 nM and the Dmax is more than 85%. On SMARCA4-HiBiT, the DC50 was less than 10 nM and the Dmax is more than 85%.

Consider `O=C1CCC(N2C(=O)c3ccc(N4CCC(CNC5CCN(C(=O)N6CCN7c8cc(-c9ccccc9O)nnc8NC[C@H]7C6)CC5)CC4)cc3C2=O)C(=O)N1` (stereo partly drawn) [Example 140, 2-(2,6-dioxopiperidin-3-yl)-5-(4-(((l-((S)-2-(2-hydroxyphenyl)-6,6a,7,8,9,10-hexahydro-5H-pyrazino[1′,2′:4,5]pyrazino[2,3-c]pyridazine-8-carbonyl)piperidin-4-yl)amino)methyl)piperidin-1-yl)isoindoline-1,3-dione], for which, at SMARCA2-HiBiT, the DC50 was less than 10 nM and the Dmax lay in the range of 75 to 85%. Moreover, on SMARCA4-HiBiT, the DC50 is less than 10 nM and the Dmax fell in the range of 75 to 85%.

On to `O=C1CCC(N2C(=O)c3ccc(N4CCC(NC5CCN(C(=O)N6CCN7c8cc(-c9ccccc9O)nnc8NC[C@H]7C6)CC5)CC4)cc3C2=O)C(=O)N1` (stereo partly drawn) [Example 141, 2-(2,6-dioxopiperidin-3-yl)-5-(4-((1-((S)-2-(2-hydroxyphenyl)-6,6a,7,8,9,10-hexahydro-5H-pyrazino[1′,2′:4,5]pyrazino[2,3-c]pyridazine-8-carbonyl)piperidin-4-yl)amino)piperidin-1-yl)isoindoline-1,3-dione], for which, on SMARCA2-HiBiT, the DC50 was less than 10 nM and the Dmax was in the range of 75 to 85%. Besides, at SMARCA4-HiBiT, the DC50 lay within 10 to 100 nM and the Dmax was in the range of 50 to 75%.

Consider `O=C1CCC(N2C(=O)c3ccc(N4CCN(CC5CCN(C(=O)N6CCN7c8cc(-c9ccccc9O)nnc8NC[C@H]7C6)CC5)CC4)cc3C2=O)C(=O)N1` (stereo partly drawn) [Example 142, 2-(2,6-dioxopiperidin-3-yl)-5-(4-((1-((S)-2-(2-hydroxyphenyl)-6,6a,7,8,9,10-hexahydro-5H-pyrazino[1′,2′:4,5]pyrazino[2,3-c]pyridazine-8-carbonyl)piperidin-4-yl)methyl)piperazin-1-yl)isoindoline-1,3-dione], for which, on SMARCA2-HiBiT, the DC50 is less than 10 nM and the Dmax lay in the range of 75 to 85%. Further, on SMARCA4-HiBiT, the DC50 was in the range of 10 to 100 nM and the Dmax fell in the range of 50 to 75%.

For the compound `O=C1CCC(N2Cc3ccc(C4CCN(CC5CCN(C(=O)N6CCN7c8cc(-c9ccccc9O)nnc8NC[C@H]7C6)CC5)CC4)cc3C2=O)C(=O)N1` (stereo partly drawn) [Example 143, 3-(6-(1-((1-((S)-2-(2-hydroxyphenyl)-6,6a,7,8,9,10-hexahydro-5H-pyrazino[1′,2′:4,5]pyrazino[2,3-c]pyridazine-8-carbonyl)piperidin-4-yl)methyl)piperidin-4-yl)-1-oxoisoindolin-2-yl) piperidine-2,6-dione], on SMARCA2-HiBiT, the 50% degradation concentration (DC50) is less than 10 nM and the Dmax is more than 85%. On SMARCA4-HiBiT, the DC50 was 10 to 100 nM and the Dmax lay within 75 to 85%.

Turning to `O=C1CCC(N2C(=O)c3ccc(C4CCN(CC5CCN(C(=O)N6CCN7c8cc(-c9ccccc9O)nnc8NC[C@H]7C6)CC5)CC4)cc3C2=O)C(=O)N1` (stereo partly drawn) [Example 144, 2-(2,6-dioxopiperidin-3-yl)-5-(1-((1-((S)-2-(2-hydroxyphenyl)-6,6a,7,8,9,10-hexahydro-5H-pyrazino[1′,2′:4,5]pyrazino[2,3-c]pyridazine-8-carbonyl)piperidin-4-yl)methyl)piperidin-4-yl)isoindoline-1,3-dione], the DC50 at SMARCA2-HiBiT and at SMARCA4-HiBiT was less than 10 nM each time. For the same compound, the maximal degradation (Dmax) at SMARCA2-HiBiT and at SMARCA4-HiBiT was 75 to 85% in each case.

As to `O=C1CCC(N2C(=O)c3ccc(OC4CCN(CC5CCN(C(=O)N6CCN7c8cc(-c9ccccc9O)nnc8NC[C@H]7C6)CC5)CC4)cc3C2=O)C(=O)N1` (stereo partly drawn) [Example 145, 2-(2,6-dioxopiperidin-3-yl)-5-((1-((1-((S)-2-(2-hydroxyphenyl)-6,6a,7,8,9,10-hexahydro-5H-pyrazino[1′,2′:4,5]pyrazino[2,3-c]pyridazine-8-carbonyl)piperidin-4-yl)methyl)piperidin-4-yl)oxy)isoindoline-1,3-dione], at SMARCA2-HiBiT, the DC50 was less than 10 nM and the maximal degradation (Dmax) lay within 75 to 85%. For the same compound, at SMARCA4-HiBiT, the DC50 was in the range of 10 to 100 nM and the Dmax was 75 to 85%.

As to `O=C1CCC(N2Cc3ccc(N4CCN(CC5CCN(C(=O)N6CCN7c8cc(-c9ccccc9O)nnc8NC[C@H]7C6)CC5)CC4)cc3C2=O)C(=O)N1` (stereo partly drawn) [Example 146, 3-(6-(4-((1-((S)-2-(2-hydroxyphenyl)-6,6a,7,8,9,10-hexahydro-5H-pyrazino[1′,2′:4,5]pyrazino[2,3-c]pyridazine-8-carbonyl)piperidin-4-yl)methyl)piperazin-1-yl)-1-oxoisoindolin-2-yl) piperidine-2,6-dione], at SMARCA2-HiBiT, the DC50 is less than 10 nM and the greatest degradation seen (Dmax) is more than 85%. At SMARCA4-HiBiT, the DC50 is less than 10 nM and the Dmax is more than 85%.

`O=C1CCC(N2C(=O)c3ccc(N4CC5(CC(CN6CCC(CN7CCN8c9cc(-c%10ccccc%10O)nnc9NC[C@H]8C7)CC6)C5)C4)cc3C2=O)C(=O)N1` (stereo partly drawn) [Example 147, 2-(2,6-dioxopiperidin-3-yl)-5-(6-((4-(((S)-2-(2-hydroxyphenyl)-5,6,6a,7,9,10-hexahydro-8H-pyrazino[1′,2′:4,5]pyrazino[2,3-c]pyridazin-8-yl)methyl)piperidin-1-yl)methyl)-2-azaspiro[3.3]heptan-2-yl)isoindoline-1,3-dione]: at SMARCA2-HiBiT, the DC50 is less than 10 nM and the Dmax was more than 85%. Further, at SMARCA4-HiBiT, the DC50 is less than 10 nM and the Dmax is more than 85%.

On to `CC1CC(CN2CCC(CN3CCN4c5cc(-c6ccccc6O)nnc5NC[C@H]4C3)CC2)CCN1c1ccc2c(c1)C(=O)N(C1CCC(=O)NC1=O)C2=O` (stereo partly drawn) [Example 148, 2-(2,6-dioxopiperidin-3-yl)-5-(4-((4-(((S)-2-(2-hydroxyphenyl)-5,6,6a,7,9,10-hexahydro-8H-pyrazino[1′,2′:4,5]pyrazino[2,3-c]pyridazin-8-yl)methyl)piperidin-1-yl)methyl)-2-methylpiperidin-1-yl)isoindoline-1,3-dione], for which the half-maximal degradation concentration (DC50) on SMARCA2-HiBiT and at SMARCA4-HiBiT was less than 10 nM each time. Besides, the maximal degradation (Dmax) at SMARCA2-HiBiT and at SMARCA4-HiBiT was more than 85% in each case.

For `O=C1CCC(N2C(=O)c3ccc(N4CCC(F)(CN5C[C@@H]6[C@@H](CN7CCN8c9cc(-c%10ccccc%10O)nnc9NC[C@H]8C7)[C@@H]6C5)CC4)cc3C2=O)C(=O)N1` (stereo partly drawn) [Example 149, 2-(2,6-dioxopiperidin-3-yl)-5-(4-fluoro-4-(((1R,5S,6s)-6-(((S)-2-(2-hydroxyphenyl)-5,6,6a,7,9,10-hexahydro-8H-pyrazino[1′,2′:4,5]pyrazino[2,3-c]pyridazin-8-yl)methyl)-3-azabicyclo[3.1.0]hexan-3-yl)methyl)piperidin-1-yl)isoindoline-1,3-dione], at SMARCA2-HiBiT, the DC50 was less than 10 nM and the Dmax fell in the range of 50 to 75%. Further, at SMARCA4-HiBiT, the DC50 is 10 to 100 nM and the Dmax was 50 to 75%.

Turning to `O=C1CCC(N2C(=O)c3ccc(N4CCC5(CC4)CC(CN4CCC(CN6CCN7c8cc(-c9ccccc9O)nnc8NC[C@H]7C6)CC4)C5)cc3C2=O)C(=O)N1` (stereo partly drawn) [Example 150, 2-(2,6-dioxopiperidin-3-yl)-5-(2-((4-(((S)-2-(2-hydroxyphenyl)-5,6,6a,7,9,10-hexahydro-8H-pyrazino[1′,2′:4,5]pyrazino[2,3-c]pyridazin-8-yl)methyl)piperidin-1-yl)methyl)-7-azaspiro[3.5]nonan-7-yl)isoindoline-1,3-dione], the DC50 at SMARCA2-HiBiT and on SMARCA4-HiBiT was less than 10 nM throughout. The Dmax at SMARCA2-HiBiT and on SMARCA4-HiBiT was more than 85% each time.

With `CC1(CN2C[C@@H]3[C@@H](CN4CCN5c6cc(-c7ccccc7O)nnc6NC[C@H]5C4)[C@@H]3C2)CCN(c2ccc3c(c2)C(=O)N(C2CCC(=O)NC2=O)C3=O)C1` (stereo partly drawn) [Example 151, 2-(2,6-dioxopiperidin-3-yl)-5-(3-(((1R,5S,6r)-6-(((S)-2-(2-hydroxyphenyl)-5,6,6a,7,9,10-hexahydro-8H-pyrazino[1′,2′:4,5]pyrazino[2,3-c]pyridazin-8-yl)methyl)-3-azabicyclo[3.1.0]hexan-3-yl)methyl)-3-methylpyrrolidin-1-yl)isoindoline-1,3-dione], the DC50 was less than 10 nM on SMARCA2-HiBiT and 10 to 100 nM at SMARCA4-HiBiT. In addition, the Dmax on SMARCA2-HiBiT lay in the range of 75 to 85%; at SMARCA4-HiBiT, 50 to 75%.
